In patent US20230081426A1, “COMPOUNDS AND METHODS FOR KRAS MODULATION AND INDICATIONS THEREFOR” (Plexxikon Inc., priority 2020, published 2023):

Experiments:
[1] = biological target: T1, G12D-mutant human KRAS (amino acid residues 1-188) (Homo sapiens, UniProt P01116, G12D); experiment: KRAS Binding Disruption Assay (AlphaScreen; biotinylated KRpep-2d analogue or RAF1-RBD), G12D; conditions: KRAS G12D; geometric mean; read-out: KRAS GMean IC50 (uM) MUTATION: G12D
T1 construct: G12D or G12C-mutant human KRAS (amino acid residues 1-188) with FLAG tag; made in house; host or cells: E. coli
T1 sequence (P01116 1-188 isoform P01116-2 G12D): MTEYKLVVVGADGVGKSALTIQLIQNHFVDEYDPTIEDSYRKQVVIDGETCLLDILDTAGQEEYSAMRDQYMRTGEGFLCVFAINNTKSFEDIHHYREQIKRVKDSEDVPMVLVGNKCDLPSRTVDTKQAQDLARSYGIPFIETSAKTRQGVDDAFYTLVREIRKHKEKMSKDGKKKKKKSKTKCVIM
Method in brief: (§1)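 AlphaScreen readout: signal falls as compound displaces biotinylated KRpep-2d analogue or RAF1-RBD from mutant KRAS. Both partners at 5-20 nM, 1 h binding at 25° C, then 10 μg/mL Anti-Flag acceptor and streptavidin donor beads for 1 h. IC50 by nonlinear regression of % inhibition.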

[2] = biological target: T2, G12C-mutant human KRAS (amino acid residues 1-188) (Homo sapiens, UniProt P01116, G12C); experiment: KRAS Binding Disruption Assay (AlphaScreen; biotinylated KRpep-2d analogue or RAF1-RBD), G12C; conditions: geometric mean, read-out: KRAS GMean IC50 (uM) MUTATION: G12C
T2 construct: G12D or G12C-mutant human KRAS (amino acid residues 1-188) with FLAG tag; made in house; host or cells: E. coli
T2 sequence (P01116 1-188 isoform P01116-2 G12C): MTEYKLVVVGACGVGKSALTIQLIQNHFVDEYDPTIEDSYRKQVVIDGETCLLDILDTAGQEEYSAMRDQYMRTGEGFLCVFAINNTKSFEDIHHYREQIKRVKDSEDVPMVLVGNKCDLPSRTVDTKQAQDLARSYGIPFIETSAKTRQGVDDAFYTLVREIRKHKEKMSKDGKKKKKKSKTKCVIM
Method in brief: as §1

Compound	IC50 [1] [µM]	IC50 [2] [µM]
Cc1cccc2[nH]nc(-c3ccc4c(N5C[C@H]6CC[C@@H](C5)N6)nc(OC[C@@H]5CCCN5C)nc4c3F)c12 [P-0712, 4-((1R,5S)-3,8-diazabicyclo[3.2.1]octan-3-yl)-8-fluoro-7-(4-methyl-1H-indazol-3-yl)-2-(((S)-1-methylpyrrolidin-2-yl)methoxy)quinazoline]	10 to 100	10 to 100
Oc1cc(-c2ccc3c(N4C[C@H]5CC[C@@H](C4)N5)nc(OCCN4CCC4)nc3c2F)c2ccccc2c1 [P-0713, 4-(2-(2-(azetidin-1-yl)ethoxy)-4-((1R,5S)-3,8-diazabicyclo[3.2.1]octan-3-yl)-8-fluoroquinazolin-7-yl)naphthalen-2-ol]	0.0001 to 10	10 to 100
Oc1cc(-c2ccc3c(N4C[C@H]5CC[C@@H](C4)N5)nc(OC[C@@H]4CCCN4)nc3c2F)c2ccccc2c1 [P-0714, 4-(4-((1R,5S)-3,8-diazabicyclo[3.2.1]octan-3-yl)-8-fluoro-2-(((S)-pyrrolidin-2-yl)methoxy)quinazolin-7-yl)naphthalen-2-ol]	0.0001 to 10	10 to 100
Cc1ncoc1COc1nc(N2C[C@H]3CC[C@@H](C2)N3)c2ccc(-c3cc(O)cc4ccccc34)c(F)c2n1 [P-0715, 4-(4-((1R,5S)-3,8-diazabicyclo[3.2.1]octan-3-yl)-8-fluoro-2-((4-methyloxazol-5-yl)methoxy)quinazolin-7-yl)naphthalen-2-ol]	10 to 100	10 to 100
Oc1cc(-c2ccc3c(N4C[C@H]5CC[C@@H](C4)N5)nc(OCc4cnco4)nc3c2F)c2ccccc2c1 [P-0716, 4-(4-((1R,5S)-3,8-diazabicyclo[3.2.1]octan-3-yl)-8-fluoro-2-(oxazol-5-ylmethoxy)quinazolin-7-yl)naphthalen-2-ol]	0.0001 to 10	10 to 100
CC(=O)NC(C)(C)COc1nc(N2C[C@H]3CC[C@@H](C2)N3)c2ccc(-c3cc(O)cc4ccccc34)c(F)c2n1 [P-0717, N-(1-((4-((1R,5S)-3,8-diazabicyclo[3.2.1]octan-3-yl)-8-fluoro-7-(3-hydroxynaphthalen-1-yl)quinazolin-2-yl)oxy)-2-methylpropan-2-yl)acetamide]	0.0001 to 10	10 to 100
CC(C)(COc1nc(N2C[C@H]3CC[C@@H](C2)N3)c2ccc(-c3cc(O)cc4ccccc34)c(F)c2n1)NS(C)(=O)=O [P-0718, N-(1-((4-((1R,5S)-3,8-diazabicyclo[3.2.1]octan-3-yl)-8-fluoro-7-(3-hydroxynaphthalen-1-yl)quinazolin-2-yl)oxy)-2-methylpropan-2-yl)methanesulfonamide]	0.0001 to 10	10 to 100
CC(C)(CO)COc1nc(N2C[C@H]3CC[C@@H](C2)N3)c2ccc(-c3cc(O)cc4ccccc34)c(F)c2n1 [P-0719, 4-(4-((1R,5S)-3,8-diazabicyclo[3.2.1]octan-3-yl)-8-fluoro-2-(3-hydroxy-2,2-dimethylpropoxy)quinazolin-7-yl)naphthalen-2-ol]	0.0001 to 10	0.0001 to 10
COC(C)(C)COc1nc(N2C[C@H]3CC[C@@H](C2)N3)c2ccc(-c3cc(O)cc4ccccc34)c(F)c2n1 [P-0720, 4-(4-((1R,5S)-3,8-diazabicyclo[3.2.1]octan-3-yl)-8-fluoro-2-(2-methoxy-2-methylpropoxy)quinazolin-7-yl)naphthalen-2-ol]	0.0001 to 10	10 to 100
Oc1cc(-c2ccc3c(N4C[C@H]5CC[C@@H](C4)N5)nc(OCC4(O)CCCC4)nc3c2F)c2ccccc2c1 [P-0721, 4-(4-((1R,5S)-3,8-diazabicyclo[3.2.1]octan-3-yl)-8-fluoro-2-((1-hydroxycyclopentyl)methoxy)quinazo-lin-7-yl)naphthalen-2-ol]	0.0001 to 10	10 to 100
Oc1cc(-c2ccc3c(N4C[C@H]5CC[C@@H](C4)N5)nc(OCC4(O)CCC4)nc3c2F)c2ccccc2c1 [P-0722, 4-(4-((1R,5S)-3,8-diazabicyclo[3.2.1]octan-3-yl)-8-fluoro-2-((1-hydroxycyclobutyl)methoxy)quinazolin-7-yl)naphthalen-2-ol]	0.0001 to 10	10 to 100
Fc1c(-c2c[nH]c3cccc(C(F)(F)F)c23)ccc2c(N3C[C@H]4CC[C@@H](C3)N4)nc(OCC34CCCN3CCC4)nc12 [P-0723, 4-((1R,5S)-3,8-diazabicyclo[3.2.1]octan-3-yl)-8-fluoro-2-((tetrahydro-1H-pyrrolizin-7a(5H)-yl)methoxy)-7-(4-(trifluoromethyl)-1H-indol-3-yl)quinazoline]	0.0001 to 10	0.0001 to 10
CN1CCC[C@H]1COc1nc(N2C[C@H]3CC[C@@H](C2)N3)c2cc(F)c(-c3n[nH]c4ccc(F)cc34)c(F)c2n1 [P-0724, 4-((1R,5S)-3,8-diazabicyclo[3.2.1]octan-3-yl)-6,8-difluoro-7-(5-fluoro-1H-indazol-3-yl)-2-(((S)-1-methylpyrrolidin-2-yl)methoxy)quinazoline]	10 to 100	100 to 1000
CN1CCC[C@H]1COc1nc(N2C[C@H]3CC[C@@H](C2)N3)c2cc(F)c(-c3n[nH]c4ccccc34)c(F)c2n1 [P-0725, 4-((1R,5S)-3,8-diazabicyclo[3.2.1]octan-3-yl)-6,8-difluoro-7-(1H-indazol-3-yl)-2-(((S)-1-methylpyrrolidin-2-yl)methoxy)quinazoline]	10 to 100	100 to 1000
CN1CCC[C@H]1COc1nc(N2C[C@H]3CC[C@@H](C2)N3)c2cc(F)c(-c3c[nH]c4ccc(F)cc34)c(F)c2n1 [P-0726, 4-((1R,5S)-3,8-diazabicyclo[3.2.1]octan-3-yl)-6,8-difluoro-7-(5-fluoro-1H-indol-3-yl)-2-(((S)-1-methylpyrrolidin-2-yl)methoxy)quinazoline]	0.0001 to 10	10 to 100
COc1cccc2ncnc(-c3ccc4c(N5C[C@H]6CC[C@@H](C5)N6)nc(OC[C@@H]5CCCN5C)nc4c3F)c12 [P-0727, 4′-((1R,5S)-3,8-diazabicyclo[3.2.1]octan-3-yl)-8′-fluoro-5-methoxy-2′-(((S)-1-methylpyrrolidin-2-yl)methoxy)-4,7′-biquinazoline]	100 to 1000	100 to 1000
CN1CCC[C@H]1COc1nc(N2C[C@H]3CC[C@@H](C2)N3)c2ccc(-c3nccc4cccc(Cl)c34)c(F)c2n1 [P-0728, 4-((1R,5S)-3,8-diazabicyclo[3.2.1]octan-3-yl)-7-(8-chloroisoquinolin-1-yl)-8-fluoro-2-(((S)-1-methylpyrrolidin-2-yl)methoxy)quinazoline]	10 to 100	100 to 1000
CN1CCC[C@H]1COc1nc(N2C[C@H]3CC[C@@H](C2)N3)c2ccc(-c3c[nH]c4cccc(C(F)(F)F)c34)cc2n1 [P-0729, 4-((1R,5S)-3,8-diazabicyclo[3.2.1]octan-3-yl)-2-(((S)-1-methylpyrrolidin-2-yl)methoxy)-7-(4-(trifluoromethyl)-1H-indol-3-yl)quinazoline]	0.0001 to 10	10 to 100
Fc1cc2c(N3C[C@H]4CC[C@@H](C3)N4)nc(OCC34CCCN3CCC4)nc2c(F)c1-c1c[nH]c2cccc(C3CC3)c12 [P-0730, 4-((1R,5S)-3,8-diazabicyclo[3.2.1]octan-3-yl)-7-(4-cyclopropyl-1H-indol-3-yl)-6,8-difluoro-2-((tetrahydro-1H-pyrrolizin-7a(5H)-yl)methoxy)quinazoline]	0.0001 to 10	0.0001 to 10
